Ratio IC50, Ki and Selectivity ratio data for 23 molecules are collected here from ChEMBL document CHEMBL1145407, “Structure-activity relationships of alpha-ketooxazole inhibitors of fatty acid amide hydrolase” (J Med Chem, 2007).

Test [1] is described as follows: Selectivity for rat recombinant FAAH over KIAA1363.
The target of test [2] is T1, Fatty-acid amide hydrolase 1 (Rattus norvegicus, UniProt P97612).
T1 sequence (P97612 whole entry): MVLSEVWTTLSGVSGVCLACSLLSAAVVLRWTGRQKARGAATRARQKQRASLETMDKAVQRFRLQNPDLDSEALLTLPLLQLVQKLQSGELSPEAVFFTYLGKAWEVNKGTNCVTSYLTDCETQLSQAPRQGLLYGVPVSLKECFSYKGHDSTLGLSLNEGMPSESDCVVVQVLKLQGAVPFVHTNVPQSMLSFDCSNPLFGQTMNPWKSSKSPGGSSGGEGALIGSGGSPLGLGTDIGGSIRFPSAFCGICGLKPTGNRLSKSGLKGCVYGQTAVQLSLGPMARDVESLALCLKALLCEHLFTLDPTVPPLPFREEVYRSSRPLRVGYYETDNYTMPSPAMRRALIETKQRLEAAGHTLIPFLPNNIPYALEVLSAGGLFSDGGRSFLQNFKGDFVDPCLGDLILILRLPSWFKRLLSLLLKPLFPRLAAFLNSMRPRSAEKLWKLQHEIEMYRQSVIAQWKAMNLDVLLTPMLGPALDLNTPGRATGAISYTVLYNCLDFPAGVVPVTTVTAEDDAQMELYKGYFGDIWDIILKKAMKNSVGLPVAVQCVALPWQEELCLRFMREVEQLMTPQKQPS
In words: Inhibition of rat recombinant FAAH expressed in Escherichia coli.

Test [3] in a line: Selectivity for rat recombinant FAAH over TGH.
The target in test [4] is T2, Fatty-acid amide hydrolase 1 (Homo sapiens, UniProt O00519).
T2 sequence (O00519 whole entry): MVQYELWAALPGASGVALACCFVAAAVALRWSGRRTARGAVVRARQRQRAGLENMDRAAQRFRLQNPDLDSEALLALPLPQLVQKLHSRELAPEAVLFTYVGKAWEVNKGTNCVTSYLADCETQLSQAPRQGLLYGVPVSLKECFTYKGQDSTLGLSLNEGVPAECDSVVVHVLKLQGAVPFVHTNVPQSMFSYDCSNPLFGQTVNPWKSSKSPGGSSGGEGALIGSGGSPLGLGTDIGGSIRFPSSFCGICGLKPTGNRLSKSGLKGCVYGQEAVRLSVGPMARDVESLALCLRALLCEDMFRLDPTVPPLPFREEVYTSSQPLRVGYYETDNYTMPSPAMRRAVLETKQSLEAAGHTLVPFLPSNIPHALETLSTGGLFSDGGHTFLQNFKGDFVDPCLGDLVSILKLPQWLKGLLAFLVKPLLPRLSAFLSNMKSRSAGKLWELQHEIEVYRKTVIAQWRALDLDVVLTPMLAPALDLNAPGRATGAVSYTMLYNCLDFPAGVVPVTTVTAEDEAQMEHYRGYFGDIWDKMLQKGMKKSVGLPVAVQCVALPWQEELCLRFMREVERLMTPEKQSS
In words: Inhibition of human FAAH expressed in COS-7 cells.

The term Ki denotes the equilibrium dissociation constant of an inhibitor or competing ligand from its target.

As to `O=C(CCCCCCc1cccc(Cl)c1Cl)c1ncc(-c2ccccn2)o1`, the Ratio IC50 in test [1] was above 14000; in test [3] it was 70. Moreover, the values for the inhibition constant (Ki) in test [2] and in test [4] were 0.9 nM and 1.2 nM, respectively.
With `O=C(CCCCCCc1cccnc1)c1ncc(-c2ccccn2)o1`, the Ratio IC50 is above 5000 in test [1] and 50 in test [3]. Besides, the Ki in test [2] came out at 32 nM.
Consider `O=C(CCCCCCc1ccccc1F)c1ncc(-c2ccccn2)o1`, for which the results for the Ratio IC50 in test [1] and in test [3] were above 3300 and 17, respectively. The Ki in test [2] came to 1.7 nM.
In the same order, the values of `CSc1cccc(CCCCCCC(=O)c2ncc(-c3ccccn3)o2)c1` are above 10000, 30 and 4.2 nM.
As to `CCCCCCc1ccc(CCCCCCC(=O)c2ncc(-c3ccccn3)o2)cc1`, the Ratio IC50 in test [1] is above 3300; in test [3] it was 1000. Moreover, the Ki in test [2] was found to be 6.7 nM.
In the same order, the values of `O=C(CCCCCCc1ccccc1Cl)c1ncc(-c2ccccn2)o1` are above 5000, 30 and 1.9 nM.
On to `O=C(CCCCCCc1ccc2ccccc2c1)c1ncc(-c2ccccn2)o1`, for which the Ratio IC50 in test [1] is above 2500; in test [3], 0.5. Moreover, the Ki in test [2] is 11 nM.
Consider `Cc1ccc(CCCCCCC(=O)c2ncc(-c3ccccn3)o2)cc1`, for which the Ratio IC50 is above 2500 in test [1] and 125 in test [3]. In addition, the Ki in test [2] was determined as 2.8 nM.
As to `CSc1ccc(CCCCCCC(=O)c2ncc(-c3ccccn3)o2)cc1`, the Ratio IC50 in test [1] was above 5000; in test [3], 40. For the same molecule, the Ki in test [2] amounted to 2.5 nM.
The like results for `COc1ccccc1CCCCCCC(=O)c1ncc(-c2ccccn2)o1` were, in that order, above 10000, 500 and 5.8 nM.
The like results for `COC(=O)c1ccc(CCCCCCC(=O)c2ncc(-c3ccccn3)o2)cc1` were, in that order, above 400000, 25000 and 1.5 nM.
In the same order, the values of `CS(=O)(=O)c1cccc(CCCCCCC(=O)c2ncc(-c3ccccn3)o2)c1` are above 25000, 1000 and 1.3 nM.
As to `COc1cccc(CCCCCCC(=O)c2ncc(-c3ccccn3)o2)c1`, the Ratio IC50 in test [1] was above 5000; in test [3], 50. Further, the Ki in test [2] was 2.5 nM.
Take `CS(=O)(=O)c1ccccc1CCCCCCC(=O)c1ncc(-c2ccccn2)o1`: the figures for the Ratio IC50 in test [1] and in test [3] were above 1000 and 30, respectively. In test [2], the Ki was found to be 37 nM.
The like results for `O=C(CCCCCCc1ccc(Cl)cc1)c1ncc(-c2ccccn2)o1` were, in that order, above 3300, 67 and 2.7 nM.
The like results for `O=C(CCCCCCc1ccsc1)c1ncc(-c2ccccn2)o1` were, in that order, above 3300, 27 and 5.1 nM.
The like results for `CS(=O)(=O)c1ccc(CCCCCCC(=O)c2ncc(-c3ccccn3)o2)cc1` were, in that order, above 2000, 40 and 19 nM.
`COC(=O)c1cccc(CCCCCCC(=O)c2ncc(-c3ccccn3)o2)c1`: the values for the Ratio IC50 in test [1] and in test [3] were above 250000 and 25000, respectively. For the same molecule, the Ki in test [2] was 1.9 nM.
For `COc1ccc(CCCCCCC(=O)c2ncc(-c3ccccn3)o2)cc1`, in test [1], the Selectivity ratio was above 5000. Further, the Ki in test [2] stood at 6.2 nM. The Ratio IC50 in test [3] was found to be 250.
Regarding `Cc1ccccc1CCCCCCC(=O)c1ncc(-c2ccccn2)o1`, the Ratio IC50 in test [1] was above 3300; in test [3], 100. The Ki in test [2] was determined as 3 nM.
Turning to `O=C(CCCCCCc1ccc(C(F)(F)F)cc1)c1ncc(-c2ccccn2)o1`, the Ratio IC50 in test [1] was above 10000; in test [3], 20. Moreover, the Ki in test [2] worked out at 4 nM.
As for `O=C(CCCCCCc1cccc(F)c1)c1ncc(-c2ccccn2)o1`, the values for the Ratio IC50 in test [1] and in test [3] were above 10000 and 100, respectively. Further, the Ki in test [2] was found to be 2.2 nM.
In the same order, the values of `O=C(CCCCCCc1cccs1)c1ncc(-c2ccccn2)o1` are above 5000, 35 and 4.3 nM.
